Measurements published in patent publication US20020065314A1, “COMPOSITIONS AND METHOD FOR STIMULATING HAIR GROWTH” (priority 1995, published 2002).
Read-outs that look alike come from different tables or passages of the source.

Tests used:
[1] = system: C57BL/KsJ db/+ and C57BL/KsJ db/db mice; experiment: Dose of n-butyl cyanoacrylate and response of hair growth (macroscopic score); format: in vivo, mouse
Procedure: The effect of n-butyl cyanoacrylate concentration on stimulation of hair growth was investigated as follows. Five mice of each strains C57BL/KsJ db/+ and C57BL/KsJ db/db were shaved on the dorsum, treated with a single topical application of either undiluted Nexaband^R Liquid (containing about 10 mg of n-butyl cyanoacrylate per 10 μl), or Nexaband^R Liquid diluted to 50% or 25% with vegetable oil. Hair growth was macroscopically scored at 49, 61 and 86 days after treatment.

C57BL/KsJ db/+ mice [2] = experiment: Application to full-thickness incisional and excisional wounds; format: in vivo, mouse
Procedure: An incisional, full-thickness wound, about 2 cm long was made through the dorsal skin of five mice (strain C57BL/KsJ db/+). A single dose of about 10 mg of n-butyl cyanoacrylate (in 10 μl of Nexaband^R Liquid) was applied to the bottom of the wound, and the wound closed with two surgical clips. Control animals which received 10 μl of phosphate buffered saline (PBS: 0.144 g/l KH2PO4, 9.0 g/l NaCl, 0.795 g/l Na2HPO4.7H2O; pH 7.2) were processed identically. During the period of 1-90 days post application, the effect of n-butyl cyanoacrylate treatment was examined by macroscopic observation.
In a group of five C57BL/KsJ db/+ mice, a full-thickness excisional wound was made with a biopunch (6 mm diameter) on the dorsal skin. A single dose of 9 mg of n-butyl cyanoacrylate (in 10 μl of Nexaband^R Liquid) was applied to the bottom of the wound, and the wound was left open. Control animals which received 10 μl of PBS were treated identically.

[3] = system: skin of mice (C57BL/KsJ db/+ and C57BL/KsJ db/db); experiment: Hair growth in organ culture of treated skin (ex vivo); set-up: species or system mouse
Procedure: The shaved dorsal skin of mice (C57BL/KsJ db/+ and C57BL/KsJ db/db) was treated with n-butyl cyanoacrylate by a single topical application at a dose of 10 mg cm^2. One hour later, the skin (0.5×1.0 cm) containing both treated and untreated areas was excised, rinsed in PBS, cultured in Dulbecco's Modified Eagle Medium (Gibco BRL, Gaithersburg, Md.) supplemented with 10% fetal bovine serum (HyClone Laboratories, Logan, Utah) at an atmosphere of […] and 5% CO2, 37° C. Hair growth was recorded by macroscopy.

[4] = system: C57BL/KsJ db/+ and C57BL/KsJ db/db mice; experiment: Effect of isobutyl cyanoacrylate on hair growth, topical; format: in vivo, mouse; conditions: C57BL/KsJ +/+, 10 μl cm^−2 topical
C57BL/KsJ db/+ mice [5] = conditions: for hair growth on dorsum (photograph): 31 days post application
Procedure: The induction of hair loss following treatment with certain anticancer drugs, such as cyclophosphamide or doxorubicin, is well documented (A. Tierney & J. Taylor (1991) Nurs. Stand 5:29-31; R. R. Love, et al. (1989) Cancer 63:604-612; B. W. Cline (1984) Cancer Nurs. 7:221-228). The following experiment was performed to determine the effect of n-butyl cyanoacrylate on hair regrowth in mice pre-treated with cyclophosphamide or doxorubicin. Twenty mice of strain C57BL/KsJ db/+ were peritoneally injected with either cyclophosphamide in PBS (20 mg per kilogram of body weight) or Doxorubicin in PBS (2 mg per kilogram of body weight) for 10 consecutive days. Then a single 10 μl dose of n-butyl cyanoacrylate was applied topically to an area of the shaved dorsum of each animal. Control mice, which were injected with PBS alone, were treated similarly. The effects of hair regrowth were determined both by phototrichogram (macroscopic observation using photography) and by folliculogram (microscopic observation of histological changes in the treated and untreated skin).

TGF-β2,3 = experiment: Immunohistochemistry of growth factors in treated skin; format: in vivo, mouse; conditions: throughout the study period
Procedure: Forty stock female mice of strain C57BL/KsJ db/+ at eight weeks of age were treated with a single dose of n-butyl cyanoacrylate applied topically to the shaved dorsum. Animals were sacrificed at days 4, 6, 8, 10, 12, 14, 16, 18, 20, and 22 post-treatment, and skin samples were excised to yield an area of n-butyl cyanoacrylate treated skin together with a contiguous, adjacent sample of untreated skin. In preparation for immunohistochemistry, samples were washed in PBS, fixed in 10% formalin, and secondarily fixed in Bouin's solution prior to paraffin embedding. Multiple 4-5 μm sections were placed on slides pre-coated with 3-aminopropylethoxysilane.
The following primary antibodies were used: anti-TGF-β1 neutralizing antibody; anti-TGF-β2,3; and anti-EGF receptor.

C57BL/KsJ db/+ mice [6] = experiment: Subdermal application by subcutaneous injection; format: in vivo, mouse
Procedure: In another example, 20 μl of n-butyl cyanoacrylate was applied subdermally by subcutaneous injection to a group of C57BL/KsJ db/+ mice.

[7] = system: C57BL/KsJ db/+ and C57BL/KsJ db/db mice; experiment: Effect of isobutyl cyanoacrylate on hair growth, topical; format: in vivo, mouse; conditions: C57BL/KsJ db/db, 10 μl cm^−2 topical
Procedure: The following experiment was performed to identify the effect of isobutyl cyanoacrylate, a structural analog of n-butyl cyanoacrylate, on hair growth. The shaved backs of C57BL/KsJ db/+ and C57BL/KsJ db/db mice were treated topically at a dose of 10 μl cm^−2 with either isobutyl cyanoacrylate (Sigma Chemical Co., St Louis, Mo.) or n-butyl cyanoacrylate.

[8] = 25%, C57BL/KsJ db/+, 49 days after treatment
[9] = 25%, C57BL/KsJ db/+, 61 days after treatment
[10] = 25%, C57BL/KsJ db/+, 86 days after treatment
[11] = 25%, C57BL/KsJ db/db, 49 days after treatment
[12] = 25%, C57BL/KsJ db/db, 61 days after treatment
[13] = 25%, C57BL/KsJ db/db, 86 days after treatment
[14] = 50%, C57BL/KsJ db/db, 49 days after treatment
[15] = 50%, C57BL/KsJ db/db, 61 days after treatment
[16] = 50%, C57BL/KsJ db/db, 86 days after treatment

C=C(C#N)C(=O)OCCCC [n-butyl cyanoacrylate]
Number of Animals Exhibiting Hair Growth, Score 0 [1, 8]: 4 | Number of Animals Exhibiting Hair Growth, Score 1+ [1, 8]: 1 | Number of Animals Exhibiting Hair Growth, Score 0 [1, 9]: 2 | Number of Animals Exhibiting Hair Growth, Score 1+ [1, 9]: 3 | Number of Animals Exhibiting Hair Growth, Score 0 [1, 10]: 3 | Number of Animals Exhibiting Hair Growth, Score 1+ [1, 10]: 2 | Number of Animals Exhibiting Hair Growth, Score 0 [1, 11]: 2 | Number of Animals Exhibiting Hair Growth, Score 2+ [1, 11]: 2 | Number of Animals Exhibiting Hair Growth, Score 3+ [1, 11]: 1 | Number of Animals Exhibiting Hair Growth, Score 0 [1, 12]: 2 | Number of Animals Exhibiting Hair Growth, Score 1+ [1, 12]: 1 | Number of Animals Exhibiting Hair Growth, Score 2+ [1, 12]: 1 | Number of Animals Exhibiting Hair Growth, Score 3+ [1, 12]: 1 | Number of Animals Exhibiting Hair Growth, Score 2+ [1, 13]: 3 | Number of Animals Exhibiting Hair Growth, Score 3+ [1, 13]: 2 | Number of Animals Exhibiting Hair Growth, Score 2+ [1, 14]: 2 | Number of Animals Exhibiting Hair Growth, Score 3+ [1, 14]: 3 | Number of Animals Exhibiting Hair Growth, Score 2+ [1, 15]: 1 | Number of Animals Exhibiting Hair Growth, Score 3+ [1, 15]: 4 | Number of Animals Exhibiting Hair Growth, Score 2+ [1, 16]: 2 | Number of Animals Exhibiting Hair Growth, Score 3+ [1, 16]: 3 | Number of Animals Exhibiting Hair Growth, Score 3+ ([1]; 100% (10 mg/10 μl), C57BL/KsJ db/+, 49 days after treatment): 5 | Number of Animals Exhibiting Hair Growth, Score 3+ ([1]; 100% (10 mg/10 μl), C57BL/KsJ db/+, 61 days after treatment): 5 | Number of Animals Exhibiting Hair Growth, Score 3+ ([1]; 100% (10 mg/10 μl), C57BL/KsJ db/+, 86 days after treatment): 5 | Number of Animals Exhibiting Hair Growth, Score 3+ ([1]; 100% (10 mg/10 μl), C57BL/KsJ db/db, 49 days after treatment): 5 | Number of Animals Exhibiting Hair Growth, Score 3+ ([1]; 100% (10 mg/10 μl), C57BL/KsJ db/db, 61 days after treatment): 5 | Number of Animals Exhibiting Hair Growth, Score 3+ ([1]; 100% (10 mg/10 μl), C57BL/KsJ db/db, 86 days after treatment): 5 | dose dependence of induced hair growth ([1]; undiluted, 50%, 25%): dose-dependent | microscopic examination of wound site (C57BL/KsJ db/+ mice [2]; full thickness incisional or excisional wound): induced de novo hair follicle formation in the subcutaneous adipose layer, in the dermis, as well as in the wound site | hair growth at wound (photograph) (C57BL/KsJ db/+ mice [2]; incision wound, day 17 post treatment): profound hair growth along the linear wound margin | hair growth at wound (C57BL/KsJ db/+ mice [2]; incisional and excisional wounds): stimulated hair growth along the wound margin | histology of wound site (C57BL/KsJ db/+ mice [2]; incisional wound, day 17 post treatment): development of many new hair follicles and little scar tissue in the wound site | hair growth in organ culture (photograph) ([3]; 14 days in organ culture after treatment): hair growth is apparent in the treated area | time to which hair growth lasted (end of the experiment) ([3]; organ culture, post treatment): ≥ 25 days | time at which hair growth in the treated area was observed ([3]; organ culture, single topical application 10 mg cm^2 one hour before excision, post treatment): 7 to 12 days | Hair growth [4]: 3+ (high hair regeneration with an area larger than 50% of the treated area) | reproducibility of hair growth induced (mice and rats; 10 mg/10 μl cm^−2, more than 700 normal adult mice and rats, and 80 diabetic (db/db) animals): 100% | side effect, toxic effect or tumor-like tissue formation after the treatment (mice and rats; in vivo): No any side effect or toxic effect or tumor-like tissue formation after the treatment has been observed except for a mild inflammation shortly after application | hair growth in normal intact skin, in skin of animals pre-treated with anticancer drugs, and at edges of wounds (mice and rats; two species (rat and mouse), seven strains of mouse): stimulate hair growth | time new hair remained (until sacrifice) (C57BL/KsJ db/+ mice [5]; animals pre-treated with cyclophosphamide, after treatment): ≥ 335 days | time of growing to full length (C57BL/KsJ db/+ mice [5]; mice pre-treated with cyclophosphamide, doxorubicin and PBS, post treatment): 15 to 18 days | beginning of hair regrowth in treated areas (C57BL/KsJ db/+ mice [5]; mice pre-treated with cyclophosphamide, doxorubicin and PBS, single 10 μl topical dose, post treatment): 8 to 11 days | hair growth on dorsum (photograph) (C57BL/KsJ db/+ mice [5]; pre-treated with cyclophosphamide): profound growth of new unpigmented gray hairs in the treated area | hair growth on dorsum (photograph) (C57BL/KsJ db/+ mice [5]; pre-treated with doxorubicin): profound growth of hair with normal pigmentation in the treated area | intensity of TGF-β2,3 stain in the epidermis (TGF-β2,3): greater than that of TGF-β1 | histology after subcutaneous injection (C57BL/KsJ db/+ mice [6]; 68 days after subcutaneous injection): development of new hair follicles in the treated site | histology after subcutaneous injection vs untreated site (C57BL/KsJ db/+ mice [6]; subcutaneous injection, 20 μl): induces de novo hair follicle formation and the thickening of full-thickness skin | Hair growth [7]: 3+ (high hair regeneration with an area larger than 50% of the treated area)
